Measured values reported in ChEMBL document CHEMBL1201862, “PubChem BioAssay data set” (2004).
Active and inactive are the calls of the source.

Assays:
[1] = target: T1, RNA-editing ligase 1, mitochondrial (Trypanosoma brucei brucei, UniProt P86926); experiment: TbREL1 ligase inhibitors, dose response, biochemical, fluorescence, Trypanosoma brucei (AID 1117295); type: functional
T1 sequence (P86926 whole entry): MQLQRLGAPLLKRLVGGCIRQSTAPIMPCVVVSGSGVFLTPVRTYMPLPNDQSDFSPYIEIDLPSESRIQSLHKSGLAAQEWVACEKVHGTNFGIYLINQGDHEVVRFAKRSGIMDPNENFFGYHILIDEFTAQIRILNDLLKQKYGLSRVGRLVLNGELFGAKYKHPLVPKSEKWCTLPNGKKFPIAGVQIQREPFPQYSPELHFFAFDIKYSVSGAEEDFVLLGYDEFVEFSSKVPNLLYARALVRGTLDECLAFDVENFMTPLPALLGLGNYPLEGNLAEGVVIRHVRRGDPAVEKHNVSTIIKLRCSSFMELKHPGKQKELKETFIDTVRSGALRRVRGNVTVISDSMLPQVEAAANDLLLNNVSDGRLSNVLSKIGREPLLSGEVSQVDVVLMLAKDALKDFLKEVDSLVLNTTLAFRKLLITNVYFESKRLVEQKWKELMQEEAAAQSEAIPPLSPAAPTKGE

[2] = P. falciparum Dd2 growth inhibitors, dose response, SYBR Green, cherry-picked samples (AID 1159567); type: functional, cell-based
[3] = HepG2 cell cytotoxicity, dose response, cytotoxicity control, cherry-picked samples (AID 1159577); type: functional, cell-based
[4] = target: T2, Fructose-bisphosphate aldolase (Mycobacterium tuberculosis, UniProt P9WQA3); experiment: Fluorescence-based biochemical high throughput dose response assay for inhibitors of the fructose-bisphosphate aldolase (FBA) of M. tuberculosis.; type: functional
T2 sequence (P9WQA3 whole entry): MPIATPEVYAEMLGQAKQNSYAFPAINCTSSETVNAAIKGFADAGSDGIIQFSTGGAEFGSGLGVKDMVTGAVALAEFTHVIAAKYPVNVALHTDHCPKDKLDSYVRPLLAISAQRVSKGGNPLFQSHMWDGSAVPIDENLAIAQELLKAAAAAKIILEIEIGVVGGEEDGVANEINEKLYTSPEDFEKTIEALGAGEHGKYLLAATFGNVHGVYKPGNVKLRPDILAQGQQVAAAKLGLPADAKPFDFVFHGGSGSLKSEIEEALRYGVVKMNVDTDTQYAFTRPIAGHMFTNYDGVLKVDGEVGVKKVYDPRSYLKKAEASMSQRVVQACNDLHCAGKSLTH

[5] = P. falciparum late gametocyte killing, dose response, luminescence (AID 1117278); type: functional, cell-based;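 further: gametocytes exposed to compound for 24 hours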
[6] = Jurkat T cell cytotoxicity, dose response, cytotoxicity control for P. falciparum gametocyte viability project, luminescence (AID 1117277); type: functional, cell-based;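 further: potency reflects loss of cellular ATP meaning fewer viable cells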
Cytochrome P450 2C19 = Cytochrome P450 2C19 (Homo sapiens, UniProt P33261); experiment: Cytochrome panel assay with activity outcomes. Panel member name: p450-cyp2c19 Compounds with AC50 equal or less than 10 uM are considered active; type: functional; conditions: read-out: AC50
fMet-Leu-Phe receptor = target: T3, fMet-Leu-Phe receptor (Homo sapiens, UniProt P21462); experiment: FPR ligands, dose response (AID 519); type: functional
T3 sequence (P21462 whole entry): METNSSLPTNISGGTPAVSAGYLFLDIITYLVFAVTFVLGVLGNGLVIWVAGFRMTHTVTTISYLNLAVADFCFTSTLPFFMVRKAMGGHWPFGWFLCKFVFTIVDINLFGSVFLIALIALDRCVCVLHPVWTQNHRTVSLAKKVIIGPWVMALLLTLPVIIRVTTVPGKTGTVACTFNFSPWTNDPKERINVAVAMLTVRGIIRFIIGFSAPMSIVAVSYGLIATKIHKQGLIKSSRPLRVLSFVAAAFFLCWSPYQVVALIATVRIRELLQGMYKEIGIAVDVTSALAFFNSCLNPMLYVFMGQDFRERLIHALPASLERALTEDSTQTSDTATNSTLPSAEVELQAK

Protein Tat = target: T4, Protein Tat (Human immunodeficiency virus type 1 group M subtype B (isolate HXB2)(HIV-1), UniProt P04608); type: functional;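 further: tat binding to TAR RNA read out by fluorescence polarization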
T4 sequence (P04608 whole entry): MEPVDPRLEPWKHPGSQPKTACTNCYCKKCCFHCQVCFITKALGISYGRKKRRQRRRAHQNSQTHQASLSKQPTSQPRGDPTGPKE

[7] = Artemis endonuclease inhibitor potency, dose response, biochemical, fluorescence intensity (AID 720701); type: functional;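 further: Artemis endonuclease enzyme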
[8] = Dose-response inhibition of insulin secretion in a rat insulinoma line at 5 mM glucose (AID 1117331); type: functional, cell-based; conditions: INS-1E
cells = type: functional, cell-based; conditions: INS-1E
Cytochrome P450 1A2 = target: T5, Cytochrome P450 1A2 (Homo sapiens, UniProt P05177);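 further: PubChem cytochrome P450 panel assay, CYP1A2 panel member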
T5 sequence (P05177 whole entry): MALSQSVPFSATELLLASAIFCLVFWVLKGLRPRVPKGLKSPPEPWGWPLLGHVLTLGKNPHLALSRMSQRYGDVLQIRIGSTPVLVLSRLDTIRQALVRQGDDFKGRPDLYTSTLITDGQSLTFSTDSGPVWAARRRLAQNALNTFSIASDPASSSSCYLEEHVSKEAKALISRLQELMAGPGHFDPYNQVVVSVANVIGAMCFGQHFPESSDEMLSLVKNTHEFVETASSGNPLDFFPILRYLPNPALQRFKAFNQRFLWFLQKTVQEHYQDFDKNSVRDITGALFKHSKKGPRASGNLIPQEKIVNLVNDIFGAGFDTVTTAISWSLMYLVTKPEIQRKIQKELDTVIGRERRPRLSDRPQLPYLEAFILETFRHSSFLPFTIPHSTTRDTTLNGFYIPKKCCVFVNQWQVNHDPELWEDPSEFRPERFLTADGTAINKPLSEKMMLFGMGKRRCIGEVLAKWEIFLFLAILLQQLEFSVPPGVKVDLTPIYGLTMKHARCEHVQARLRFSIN

[9] = HepG2 cell cytotoxicity, dose response, cytotoxicity control, plate reader, cherry-pick, antagonist series (AID 743416); type: functional, cell-based
[10] = LGR2 antagonists, dose response, cell-based, HEK293, CRE-luciferase reporter, cherry pick, set 2 (AID 743343); type: functional;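 further: transfected cells were stimulated with diluted bursicon conditioned medium after compound addition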
[11] = MC4R antagonists, dose response, counter-screen for LGR2 antagonist project, cell-based, plate reader, cherry pick (AID 743444); type: functional;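 further: transfected HEK 293 cells stimulated with alpha-MSH peptide; potency of inhibitors of the alpha-MSH evoked signal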
[12] = HEK293 cell cytotoxicity, dose response, cytotoxicity control, plate reader, cherry-picked samples (AID 743446); type: functional, cell-based
Paired box protein Pax-8 = Paired box protein Pax-8 (Homo sapiens, UniProt Q06710); experiment: inhibitors of PAX8-driven TPO luciferase reporter, dose response, RMG-I cells, cherry-pick (AID 687027); type: functional, cell-based;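 further: luciferase reporter driven by Pax8 target thyroperoxidase promoter measured by SteadyGlo luminescence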
[13] = A2780 ovarian cancer cell cytotoxicity, dose response, cytotoxicity control, plate reader, dry powder samples (AID 743046); type: functional, cell-based
[14] = NIH:OVCAR-3 ovarian cancer cell cytotoxicity, dose response, PAX8 inhibitor project, plate reader, dry powder samples (AID 743044); type: functional, cell-based
[15] = cytotoxicity in OVCAR8 ovarian cancer cells, dose response, PAX8 project, cell-based, plate reader, dry powder samples (AID 743197); type: functional; conditions: OVCAR-8

Sequence of Paired box protein Pax-8 (Q06710 whole entry): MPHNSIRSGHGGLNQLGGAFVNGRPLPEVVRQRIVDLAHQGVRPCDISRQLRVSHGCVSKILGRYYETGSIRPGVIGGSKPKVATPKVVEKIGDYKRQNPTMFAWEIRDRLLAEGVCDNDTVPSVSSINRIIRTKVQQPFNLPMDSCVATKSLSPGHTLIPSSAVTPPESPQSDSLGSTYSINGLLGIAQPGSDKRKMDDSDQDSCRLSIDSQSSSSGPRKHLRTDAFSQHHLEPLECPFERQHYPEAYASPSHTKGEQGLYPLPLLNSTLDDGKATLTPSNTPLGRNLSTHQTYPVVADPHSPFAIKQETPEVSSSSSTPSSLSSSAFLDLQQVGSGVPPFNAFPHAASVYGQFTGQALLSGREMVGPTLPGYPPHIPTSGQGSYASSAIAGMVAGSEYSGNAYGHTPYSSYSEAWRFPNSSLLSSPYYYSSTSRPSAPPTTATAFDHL
Sequence of Cytochrome P450 2C19 (P33261 whole entry): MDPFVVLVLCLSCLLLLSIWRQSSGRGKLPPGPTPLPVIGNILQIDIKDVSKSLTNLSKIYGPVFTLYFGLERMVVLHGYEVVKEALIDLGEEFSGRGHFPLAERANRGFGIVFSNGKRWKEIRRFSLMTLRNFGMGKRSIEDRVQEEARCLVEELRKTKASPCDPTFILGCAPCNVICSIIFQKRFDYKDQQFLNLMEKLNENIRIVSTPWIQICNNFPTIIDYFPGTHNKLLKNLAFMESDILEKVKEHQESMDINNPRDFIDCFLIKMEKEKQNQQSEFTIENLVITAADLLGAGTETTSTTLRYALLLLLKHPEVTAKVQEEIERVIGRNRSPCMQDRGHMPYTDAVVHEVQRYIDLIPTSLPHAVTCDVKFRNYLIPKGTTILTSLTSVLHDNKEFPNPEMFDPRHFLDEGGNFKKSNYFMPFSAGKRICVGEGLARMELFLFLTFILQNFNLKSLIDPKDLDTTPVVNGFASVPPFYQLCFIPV

Compound: COC(=O)C1=C(C)N(Cc2ccc(C(F)(F)F)cc2)C(NCc2ccccc2C(F)(F)F)=NC1c1ccccc1C(F)(F)F (stereo not given)
- IC50 [1]: > 96.6 µM (inactive)

Compound: CN(C)CC(=O)N1C[C@@H]2N[C@H](C1)[C@H]2c1ccc(/C=C/c2ccccc2)cc1
- AC50 [2]: 2.63 µM (active)
- AC50 [3]: 11.4 µM (active)

Compound: COc1ccc2c(CN3CCCC3)cc(=O)oc2c1
- IC50 [4]: 2.52 µM (active)

Compound: CCOC(=O)CNC(=O)c1cc(OC)cc(OC)c1
- IC50 [5]: > 109 µM (inactive)
- IC50 [6]: > 83.3 µM (inactive)

Compound: Nc1ncc2c(n1)-c1ccccc1CC2
- IC50 [4]: 1.53 µM (active)

Compound: COc1ccc(C2C(C(=O)c3ccccc3)=C(O)C(=O)N2CC(C)O)c(OC)c1 (stereo not given)
- AC50 (Cytochrome P450 2C19): 6.31 µM (inconclusive)
- Ki (fMet-Leu-Phe receptor): 38.6 µM (inactive)

Compound: CCC(=O)Nc1cc(C)c(NC(=O)C23CC4CC(CC(C4)C2)C3)cn1
- IC50 (Protein Tat): > 100 µM (active)

Compound: O=[N+]([O-])c1ccccc1/C=C/C=N/n1c(S)nnc1-c1ccc(Cl)cc1
- IC50 [7]: > 20 µM (inactive)

Compound: CN(C)CCN(Cc1ccc(Cl)cc1)c1ccccn1 [CHLOROPYRAMINE]
- IC50 [8]: 6.14 µM (inactive)
- IC50 (cells): 16.8 µM (inactive)
- AC50 (Cytochrome P450 1A2): 12.6 µM (inconclusive)

Compound: COc1ccc(-c2nc(C[S+]([O-])CC(=O)NCCCN3CC(C)CC(C)C3)c(C)o2)cc1OC (stereo not given)
- IC50 [5]: > 109 µM (inactive)
- IC50 [6]: > 83.3 µM (inactive)

Compound: COc1ccc(-n2ncc3c(N4CCC(C)CC4)ncnc32)cc1
- AC50 [9]: > 52 µM (inactive)
- AC50 [10]: 11.6 µM (active)
- AC50 [11]: 19.3 µM (active)
- AC50 [12]: > 52 µM (inactive)

Compound: COC(=O)C1=C(C)N(Cc2ccc(C(F)(F)F)cc2)C(NCc2ccccc2C(F)(F)F)=NC1c1ccccc1 (stereo not given)
- IC50 [1]: > 96.6 µM (inactive)

Compound: C[C@@H]1CCCCO[C@H](CN(C)C(=O)C2CCCCC2)[C@H](C)CN([C@@H](C)CO)C(=O)c2cc(NS(=O)(=O)c3ccc(Cl)cc3)ccc2O1
- AC50 (Paired box protein Pax-8): 10.8 µM (active)
- AC50 [13]: 43.4 µM (active)
- AC50 [14]: 45.3 µM (active)
- AC50 [15]: 56.9 µM (active)
